Data on twelve compounds can be found in patent US10172858B2, “Combination pharmaceutical compositions and uses thereof” (Intellikine LLC, priority 2011, dated 2019).

Each structure is given as a SMILES string. Read-outs that look alike come from different tables or passages of the source.

In one assay the target is PI3K α (Homo sapiens (Human), UniProt P42336). Kind of assay: PI3K α kinase assay. In kind it is biochemical.
For another assay, the system named is PC3. Kind of assay: PC3 tumor cell line proliferation assay. In kind it is cell-based. The conditions noted are these: Homo sapiens, PC-3; Table 2, in vitro IC50.
The next assay deals with PI3K γ (Homo sapiens (Human), UniProt P48736). Kind of assay: PI3K γ kinase assay. In kind it is biochemical. The conditions noted are these: Table 2.
Sequence of PI3K γ (P48736 whole entry, species assumed): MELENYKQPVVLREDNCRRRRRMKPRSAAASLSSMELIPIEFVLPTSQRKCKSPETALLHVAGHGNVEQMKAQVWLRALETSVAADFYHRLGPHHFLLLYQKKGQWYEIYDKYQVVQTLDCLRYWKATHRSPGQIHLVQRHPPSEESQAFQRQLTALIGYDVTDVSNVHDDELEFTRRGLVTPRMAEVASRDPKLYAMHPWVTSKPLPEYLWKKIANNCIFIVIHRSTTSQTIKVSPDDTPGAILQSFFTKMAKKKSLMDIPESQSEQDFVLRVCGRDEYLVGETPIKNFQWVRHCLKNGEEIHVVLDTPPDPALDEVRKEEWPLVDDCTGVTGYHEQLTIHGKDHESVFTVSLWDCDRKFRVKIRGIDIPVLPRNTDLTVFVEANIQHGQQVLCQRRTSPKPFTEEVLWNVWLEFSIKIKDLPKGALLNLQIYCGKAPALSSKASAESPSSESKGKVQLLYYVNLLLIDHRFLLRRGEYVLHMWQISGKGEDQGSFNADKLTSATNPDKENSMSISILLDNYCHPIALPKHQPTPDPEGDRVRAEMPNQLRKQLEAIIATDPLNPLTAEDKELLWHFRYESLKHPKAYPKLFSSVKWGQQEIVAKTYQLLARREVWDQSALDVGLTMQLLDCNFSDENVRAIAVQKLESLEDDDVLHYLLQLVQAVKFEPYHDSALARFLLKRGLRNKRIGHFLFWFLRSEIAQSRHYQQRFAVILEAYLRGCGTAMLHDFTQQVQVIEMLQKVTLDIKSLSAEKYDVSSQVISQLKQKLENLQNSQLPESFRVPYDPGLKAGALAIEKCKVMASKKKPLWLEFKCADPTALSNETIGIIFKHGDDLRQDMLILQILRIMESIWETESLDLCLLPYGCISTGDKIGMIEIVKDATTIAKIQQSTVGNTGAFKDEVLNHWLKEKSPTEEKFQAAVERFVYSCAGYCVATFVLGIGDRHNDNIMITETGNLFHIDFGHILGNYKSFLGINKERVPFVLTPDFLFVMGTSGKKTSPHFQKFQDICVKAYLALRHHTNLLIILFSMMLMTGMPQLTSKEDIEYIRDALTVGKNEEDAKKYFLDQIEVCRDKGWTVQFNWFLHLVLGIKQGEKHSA
In a further assay the target is mTORC (Homo sapiens (Human), UniProt P42345). Kind of assay: mTORC in vitro IC50 (Table 2). In kind it is biochemical.
Sequence of mTORC (P42345 1360-2549): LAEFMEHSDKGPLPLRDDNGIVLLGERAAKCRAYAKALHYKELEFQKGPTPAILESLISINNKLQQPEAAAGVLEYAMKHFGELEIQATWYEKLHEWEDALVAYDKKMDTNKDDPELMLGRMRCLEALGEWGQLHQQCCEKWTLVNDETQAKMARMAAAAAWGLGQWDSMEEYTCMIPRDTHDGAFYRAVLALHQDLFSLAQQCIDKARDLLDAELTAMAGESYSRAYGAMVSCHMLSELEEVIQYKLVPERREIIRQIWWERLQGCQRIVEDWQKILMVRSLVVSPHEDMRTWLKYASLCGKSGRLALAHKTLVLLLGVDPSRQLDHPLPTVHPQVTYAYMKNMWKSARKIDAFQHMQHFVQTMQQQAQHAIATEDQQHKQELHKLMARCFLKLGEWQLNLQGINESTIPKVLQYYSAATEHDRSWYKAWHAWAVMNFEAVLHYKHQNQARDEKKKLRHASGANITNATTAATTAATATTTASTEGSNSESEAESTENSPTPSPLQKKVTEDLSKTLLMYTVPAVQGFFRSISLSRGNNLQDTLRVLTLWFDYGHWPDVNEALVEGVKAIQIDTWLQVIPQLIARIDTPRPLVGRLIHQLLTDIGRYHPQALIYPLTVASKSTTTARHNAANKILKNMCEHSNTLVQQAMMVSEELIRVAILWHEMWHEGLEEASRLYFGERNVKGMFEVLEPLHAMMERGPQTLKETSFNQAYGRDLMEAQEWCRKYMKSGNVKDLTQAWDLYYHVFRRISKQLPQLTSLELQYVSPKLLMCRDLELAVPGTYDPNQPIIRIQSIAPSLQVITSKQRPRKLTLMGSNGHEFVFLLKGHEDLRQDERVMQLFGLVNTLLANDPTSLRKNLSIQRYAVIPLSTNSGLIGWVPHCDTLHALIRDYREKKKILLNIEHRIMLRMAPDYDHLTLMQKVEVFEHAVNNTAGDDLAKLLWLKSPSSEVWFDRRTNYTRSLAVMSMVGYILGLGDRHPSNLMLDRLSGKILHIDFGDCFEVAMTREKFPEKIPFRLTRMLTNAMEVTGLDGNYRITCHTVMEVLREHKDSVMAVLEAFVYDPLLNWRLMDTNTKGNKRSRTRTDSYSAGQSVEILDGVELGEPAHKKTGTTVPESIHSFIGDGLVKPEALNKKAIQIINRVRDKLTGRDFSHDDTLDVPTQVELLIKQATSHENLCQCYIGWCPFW
A further assay addresses PI3K δ (Homo sapiens (Human), UniProt O00329). Kind of assay: PI3K δ kinase assay. In kind it is biochemical.
The target of the next assay is PI3K β (Homo sapiens (Human), UniProt P42338). Kind of assay: PI3K β kinase assay. It counts as biochemical. The conditions noted are these: Table 2.
For assay [1], the system named is Endometrial cancer cells containing mutations in PTEN and FGFR2. The assay is described as follows: Combination therapy in a tumor mouse model, tumor volume. It counts as in vivo, mice. The conditions noted are these: Paclitaxel alone 20 mg/kg Q1W intravenous.
Text: Endometrial cancer cells containing mutations in PTEN and FGFR2 were implanted into mice. Mice having tumor volumes of approximately 150 mm^3 were grouped by treatment schedule, with the start of treatment designated as day 0. Control mice received no treatment.
In a further example, mice were implanted with endometrial cancer cells as above. Mice having tumor volumes of approximately 150 mm^3 were grouped by treatment schedule, with the start of treatment designated as day 0. Control mice received no treatment.
A further assay has as its system pS6, cleaved PARP. The assay is described as follows: Western blot of pS6 and cleaved PARP (FIG. 6). In kind it is cell-based. The following applies: paclitaxel alone.
For assay [2], the system named is HEC59 (paclitaxel resistant cell line) cells. The assay is described as follows: Growth of HEC59 cells (FIG. 9A). In kind it is cell-based.
The test system of assay [3] is mTORC1-dependent NRDG1 phosphorylation. The assay is described as follows: Western blot of NRDG1 phosphorylation (FIG. 4B). It counts as cell-based.

Sequence of PI3K α (P42336 whole entry): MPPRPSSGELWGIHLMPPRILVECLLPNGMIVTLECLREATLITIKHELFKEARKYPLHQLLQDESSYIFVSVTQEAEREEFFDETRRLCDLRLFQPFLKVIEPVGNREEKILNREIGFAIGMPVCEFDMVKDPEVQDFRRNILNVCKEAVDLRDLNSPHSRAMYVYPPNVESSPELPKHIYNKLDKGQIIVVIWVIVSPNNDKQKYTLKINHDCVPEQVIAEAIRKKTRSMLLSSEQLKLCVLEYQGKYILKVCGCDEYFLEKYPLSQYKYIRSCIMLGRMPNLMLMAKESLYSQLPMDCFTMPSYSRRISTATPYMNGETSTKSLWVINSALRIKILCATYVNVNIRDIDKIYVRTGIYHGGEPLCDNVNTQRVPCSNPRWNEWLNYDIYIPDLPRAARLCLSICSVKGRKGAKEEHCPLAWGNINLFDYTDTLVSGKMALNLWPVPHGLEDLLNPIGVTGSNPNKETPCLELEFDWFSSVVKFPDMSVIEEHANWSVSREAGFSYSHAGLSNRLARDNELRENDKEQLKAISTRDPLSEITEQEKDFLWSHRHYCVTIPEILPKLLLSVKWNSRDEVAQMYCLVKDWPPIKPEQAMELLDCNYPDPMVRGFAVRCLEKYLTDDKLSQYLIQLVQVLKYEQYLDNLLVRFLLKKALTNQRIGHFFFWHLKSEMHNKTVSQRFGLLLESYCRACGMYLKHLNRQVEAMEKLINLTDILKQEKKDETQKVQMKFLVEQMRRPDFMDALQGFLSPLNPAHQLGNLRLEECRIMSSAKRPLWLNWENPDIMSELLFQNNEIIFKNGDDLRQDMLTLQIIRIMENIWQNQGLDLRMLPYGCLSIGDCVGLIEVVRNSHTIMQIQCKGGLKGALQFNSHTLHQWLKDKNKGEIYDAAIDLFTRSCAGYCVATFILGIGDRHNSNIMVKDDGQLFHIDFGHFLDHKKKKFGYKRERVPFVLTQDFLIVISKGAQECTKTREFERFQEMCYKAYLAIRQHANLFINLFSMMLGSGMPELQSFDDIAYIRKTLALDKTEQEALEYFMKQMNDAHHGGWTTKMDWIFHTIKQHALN
Sequence of PI3K α (P27986 whole entry partner): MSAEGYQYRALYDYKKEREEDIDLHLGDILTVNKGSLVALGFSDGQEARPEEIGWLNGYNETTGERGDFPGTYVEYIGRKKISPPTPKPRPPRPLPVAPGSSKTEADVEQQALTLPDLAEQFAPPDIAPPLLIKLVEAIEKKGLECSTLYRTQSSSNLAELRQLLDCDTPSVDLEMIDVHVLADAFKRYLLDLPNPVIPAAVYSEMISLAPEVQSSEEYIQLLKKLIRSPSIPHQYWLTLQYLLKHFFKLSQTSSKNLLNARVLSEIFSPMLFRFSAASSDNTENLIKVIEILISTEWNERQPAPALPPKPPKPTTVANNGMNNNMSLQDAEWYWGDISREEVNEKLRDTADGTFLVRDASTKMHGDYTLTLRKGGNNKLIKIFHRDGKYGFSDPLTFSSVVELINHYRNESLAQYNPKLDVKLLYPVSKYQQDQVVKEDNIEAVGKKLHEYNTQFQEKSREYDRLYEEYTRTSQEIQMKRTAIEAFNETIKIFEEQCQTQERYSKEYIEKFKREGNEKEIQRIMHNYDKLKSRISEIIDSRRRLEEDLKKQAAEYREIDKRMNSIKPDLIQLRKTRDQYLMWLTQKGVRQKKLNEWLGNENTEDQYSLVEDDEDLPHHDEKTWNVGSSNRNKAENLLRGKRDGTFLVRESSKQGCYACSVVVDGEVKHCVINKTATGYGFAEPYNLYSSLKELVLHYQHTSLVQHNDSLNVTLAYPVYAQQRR
Experimental for PC3: The assay is performed in a 96 well microtiter plate using Alamar Blue reduction. […] A compound disclosed herein is diluted in Tumor Cell Media and added in a 10 ul volume. […] A volume of 10 uL of Alamar Blue reagent is added to each well and plates are incubated for 3 hours at 37 C and 5% CO2. Alamar Blue fluoresce is read at 560Ex/590Em, and IC50 values are calculated using GraphPad Prism 5.

`Nc1ncnc2c1c(-c1cc3cccc(O)c3[nH]1)nn2C1CCN(C(=O)C2CC2)CC1` [Compound 41]: the IC50 (in general, the concentration that inhibits the measured activity by half) at PI3K α (Table 2) was greater than 500 nM; in the assay with PC3, greater than 500 nM; against PI3K γ, less than 50 nM; on mTORC, less than 10 nM; against PI3K δ (Table 2), greater than 500 nM; at PI3K β it was greater than 500 nM.
Take `COc1cccc2cc(-c3nn(C4CCOCC4)c4ncnc(N)c34)[nH]c12` [Compound 63]: the IC50 was less than 500 nM on PI3K α; less than 25 nM against PI3K γ; less than 5 nM on mTORC; less than 25 nM against PI3K δ (Table 2); greater than 500 nM on PI3K β.
Regarding `CC(C)N1CCC(n2nc(-c3cc4cccc(O)c4[nH]3)c3c(N)ncnc32)CC1` [Compound 64], the IC50 against PI3K α (Table 2) was greater than 500 nM; on PI3K γ, less than 500 nM; at mTORC, less than 25 nM; against PI3K δ (Table 2), less than 500 nM; at PI3K β it was greater than 500 nM.
In the case of `CC(=O)N1CCC(n2nc(-c3cc4ccc(O)cc4[nH]3)c3c(N)ncnc32)CC1` [Compound 65], the IC50 is less than 50 nM on PI3K α (Table 2); less than 25 nM against PI3K γ; less than 10 nM against mTORC; less than 25 nM against PI3K δ (Table 2); greater than 500 nM against PI3K β.
For `COc1cccc2cc(-c3nn(C4CCN(C(=O)C5CC5)CC4)c4ncnc(N)c34)[nH]c12` [Compound 66], the IC50 against PI3K α (Table 2), at PI3K γ, at mTORC, at PI3K δ (Table 2) and against PI3K β was greater than 500 nM each time.
Take `COc1cc(Cl)c2[nH]c(-c3nn(C4CCOCC4)c4ncnc(N)c34)cc2c1` [Compound 67]: the IC50 against PI3K α (Table 2), against PI3K γ, against mTORC, at PI3K δ (Table 2) and on PI3K β was greater than 500 nM throughout.
On to `Nc1ncnc2c1c(-c1cc3cc(O)cc(Cl)c3[nH]1)nn2C1CCOCC1` [Compound 68], for which the IC50 was less than 500 nM on PI3K α (Table 2); less than 50 nM against PI3K γ; less than 5 nM at mTORC; less than 25 nM on PI3K δ (Table 2); greater than 500 nM on PI3K β.
With `CC(=O)N1CCC(n2nc(-c3cc4c(Cl)ccc(O)c4[nH]3)c3c(N)ncnc32)CC1` [Compound 69], the IC50 was greater than 500 nM against PI3K α (Table 2); greater than 500 nM against PI3K γ; less than 5 nM on mTORC; less than 500 nM against PI3K δ; greater than 500 nM at PI3K β.
Take `CC(=O)N1CCC(n2nc(-c3cc4cc(O)cc(Cl)c4[nH]3)c3c(N)ncnc32)CC1` [Compound 70]: the IC50 is less than 500 nM against PI3K α (Table 2); less than 100 nM on PI3K γ; less than 5 nM on mTORC; less than 25 nM against PI3K δ (Table 2); greater than 500 nM on PI3K β.
In the case of `CC(C)N1CCC(n2nc(-c3cc4c(Cl)ccc(O)c4[nH]3)c3c(N)ncnc32)CC1` [Compound 71], the IC50 at PI3K α (Table 2) was greater than 500 nM; at PI3K γ, greater than 500 nM; on mTORC, less than 100 nM; on PI3K δ, greater than 500 nM; at PI3K β, greater than 500 nM.
Take `CC(=O)O[C@H]1C(=O)[C@@]2(C)[C@H]([C@H](OC(=O)c3ccccc3)[C@]3(O)C[C@H](OC(=O)[C@H](O)[C@@H](NC(=O)c4ccccc4)c4ccccc4)C(C)=C1C3(C)C)[C@]1(OC(C)=O)CO[C@@H]1C[C@@H]2O` [Paclitaxel]: the “increase in average tumor volume by day 22” value in [1] is recorded as 17%. Also, the “average tumor volume by day 22” value in assay [1] (from about 150 mm^3 at day 0) is listed as “about 175 mm^3”. For the same compound, the pS6 level result in the assay with pS6, cleaved PARP is “induction of pS6”. In [2], the “inhibition of the growth of HEC59 cells” value is recorded as “partial inhibition”.
`CO[C@H]1C[C@@H]2CC[C@@H](C)[C@@](O)(O2)C(=O)C(=O)N2CCCC[C@H]2C(=O)O[C@H]([C@H](C)C[C@@H]2CC[C@@H](O)[C@H](OC)C2)CC(=O)[C@H](C)/C=C(\C)[C@@H](O)[C@@H](OC)C(=O)[C@H](C)C[C@H](C)/C=C/C=C/C=C/1C` [rapamycin]: the “sensitivity of mTORC1-dependent NRDG1 phosphorylation” value in assay [3] is given as “not”.
